The values that follow are results of earlier work, collected in US20080275118A1, “HEALTH AND COSMETIC COMPOSITION AND REGIME FOR STIMULATING HAIR GROWTH AND THICKENING ON THE HEAD, INCLUDING THE SCALP, EYELASHES, AND EYEBROWS, AND WHICH DISCOURAGES HAIR LOSS” (priority 2008, published 2008).

This data set relates to scalp hair. The note with it: in man, tests carried out on the scalp; Roenigk 1988.

Regarding `C=CC(O)(C/C=C/[C@H]1[C@H](O)CC(=O)[C@@H]1C/C=C\CCCC(=O)OC)CCCC` (stereo partly shown) [viprostol], the hair density result is “increasing hair density”.
